Measured values published in patent publication US20100285038A1, “Factor Involved in Metastasis and Uses Thereof” (priority 2002, published 2010).
d = 2'-deoxy (DNA); m = 2'-O-methyl

Experiments:
PRF1 protein = assay: Western blot analysis of PRF1 protein expression in PC-3 cells; assay type: cell-based, human; conditions: for expression of PRF1 protein: PC-3 cells under hypoxic conditions, 72 h GeneBloc treatment, CoCl2 treatment for 24 h (FIG. 10B); for expressed PRF1 protein: lysates of PC-3 cells treated with PRF1 specific GeneBlocs or mismatches, polyclonal antibody (FIG. 8A)
Method: A polyclonal antibody was generated against PRF1 using standard techniques. The polyclonal antibody thus obtained was tested for its specificity for PRF1. For that purpose, cell lysates from PC-3 cells treated with PRF1 specific antisense molecules, more particularly gene blocks, or mismatches thereof and cells transfected with expression plasmides for recombinant HA-tagged PRF1 were prepared. The lysates were analysed by Western blot analysis using the polyclonal antibody and the results are depicted in FIG. 8 A.
To investigate whether PI 3-kinase activity has an impact on PRF1 protein expression, PC-3 cells were treated either with LY294002 or with DMSO as control. Analysis was performed by Western Blot analysis using the polyclonal antibody as detection means for PRF1 protein. Apart from PRF1 protein, also expression of Akt and phosphorylated Akt (P*Akt) was monitored using respective specific antibodies. Additionally, the expression of p110α and p85 was monitored.
(§1) To investigate whether the expression of PRF1 at the protein level would also be dependent on Akt (PKB) activity and HIF1α activity PC-3 cells were treated with Akt specific antisense molecules. More particularly, two antisense molecules, designated Akt1-GB and Akt2-molecule were used with the readout being the same as discussed in connection with FIG. 9, whereby, additionally, the HIF1α protein expression was monitored using a commercially available protein G-purified polyclonal antibody (R&DSystems, Lot Number: IUGO13071).
(§2) The same experiment using the same markers for monitoring except Akt and P*-Akt was carried out with cells grown under hypoxic conditions which was realized by treating the cells with CoCl2. Two different forms of antisense molecules, namely HIF1α-GB66 and HIF1α-GB67 were used and respective mismatches used as controls.
(§3) A lane of the Blot represents the cell lysate of the cells shown in the corresponding photograph. As a read-out, p110 alpha and p85 are shown as loading control and the component of the PI-3K pathway investigated, i.e. AKT, monitored as P*AKT, HIF1 alpha and PRF1.

HIF1α = assay: Western blot analysis of HIF1α protein expression in PC-3 cells; assay type: cell-based, human; conditions: PC-3 cells under hypoxic conditions; 72 h GeneBloc treatment, CoCl2 treatment for 24 h (FIG. 10B)
Method: as §1, §2, §3

PC-3 cells [1] = assay: In vitro growth on Matrigel matrix; assay type: cell-based, human; conditions: PC-3 cells transfected with GeneBloc; versus corresponding mismatched oligonucleotides
Method: PC3 cells were treated with 10 μM LY294002 or DMSO when seeded on Matrigel. If cells were transfected previous to seeding cells were transfected with GeneBloc and trypsinized 48 h post transfection. The cells were washed in medium and seeded into duplicate 24-wells (100.000 cells per well) pre-coated with 250 μl matrigel basement membrane matrix (Becton Dickinson). After incubation for 24 to 72 h photographs were taken at 5× magnification with an Axiocam camera attached to an Axiovert 5100 microscope (Zeiss).
A more confluent growth of the cells is taken as an indication that their metastasis and migration behavior is increased which allows the cells to spread over the three-dimensional structure provided by the matrigel. The result of this example is depicted in FIG. 5.
PC3 cells were transfected and seeded on matrigel as described and growth was monitored. mRNA was isolated from an aliquot of the cells seeded on matrigel and analysed using Taqman assay (left panel). PRF1 (NM_019058) specific mRNA was standardized to internal p110α mRNA levels. A PTEN specific GeneBloc is used as a negative control in the PTEN^−/− PC-3 cells and a p110β specific GeneBloc is used as a positive control for growth in extracellular matrix. […]

[2] = test system: PRF1 (NM—019058) specific mRNA; assay: PRF1 mRNA knock-down by real time RT-PCR (Taqman) in transfected PC-3 cells; assay type: cell-based, human; conditions: PC-3 cells seeded on matrigel; standardized to internal p110α mRNA levels; DCt method
Method: Transfections were carried out in 96 well or 10-cm plates (at 30% to 50% confluency) by using various cationic lipids such as Oligofectamine, Lipofectamine (Life Technologies), NC388 (Ribozyme Pharmaceuticals, Inc., Boulder, Colo.), or FuGene 6 (Roche) according to the manufacturer's instructions. GeneBlocs were transfected by adding pre-formed 5× concentrated complex of GeneBloc and lipid in serum-free medium to cells in complete medium. The total transfection volume was 100 μl for cells plated in 96 wells and 10 ml for cells in 10 cm plates. The final lipid concentration was 0.8 to 1.2 μg/ml depending on cell density; the GeneBloc concentration is indicated in each experiment.
The RNA of cells transfected in 96-wells was isolated and purified using the Invisorb RNA HTS 96 kit (InVitek GmbH, Berlin). Inhibition of PRF1 mRNA expression was detected by real time RT-PCR (Taqman) analysis using 300 nM PRF1 5′ primer, 300 nM PRF1 3′ primer and 100 nM of the PRF1 Taqman probe Fam-Tamra labelled. […]
PC3 cells were transfected and seeded on matrigel as described and growth was monitored. mRNA was isolated from an aliquot of the cells seeded on matrigel and analysed using Taqman assay (left panel). […]

[3] = test system: PI 3-kinase (p110α and p85); assay: Western blot analysis of PI 3-kinase (p110α and p85) expression in PC-3 cells; assay type: cell-based, human; conditions: lysates of PC-3 cells treated with PRF1 specific GeneBloc (FIG. 8A)
PC-3 cells [4] = assay: Prostatic tumor growth and lymph node metastasis of PC-3 cells stably transfected with siRNA expression plasmids; assay type: in vivo, Shoe:NMRI-nu/nu mice; conditions: 56 days post inoculation, stably transfected PC-3 cells
Method: Male Shoe:NMRI-nu/nu mice (Tierzucht Schönwalde GmbH) maintained under SPF conditions (Laminar air flow equipment, Scantainer, Scanbur) served as recipients for the human prostate carcinoma cells. The animals, aged 6-8 weeks and weighing 28-30 g, were inoculated 2×10^6/0.03 ml tumor cells into both, the left dorsolateral lobe of the prostatic gland (iprost; Orthotopic) or the tip of the Lobus lateralis sinister of the liver (ihep; Ectopic). For this purpose, the mice received a total body anaesthesia using a mixture of Ketanest (Parke-Davis GmbH) and Rompun (Bayer Vital GmbH) 80:1 with dosages of 100 mg/kg and 5 mg/kg, respectively. […]
All sacrificed animals were completely dissected and photographically documented. Tumors (Prostatic gland) and metastases (Caudal, lumbar, renal lymph node metastases) were measured in two dimensions by means of a pair of callipers. The volume was calculated according to V (mm^3)=ab^2/2 with b<a. […]
The various siRNA constructs such as the ones directed to p 110 alpha, p110 beta and PTEN as well as the PRF1 specific siRNA were cloned in the same vector construct. […] Resistent pools of cells were expanded and harvested, cell number determined and prepared for animal experiment as described. […]

HIF1α-GB66: GeneBloc antisense molecule specific for HIF1α, SEQ ID NO: 32 (antisense GGUAGUGGTGGCATTAGCAGU; sugars from the 5' end m6 d9 m6, backbone and methylation of C not given here; DNA gap phosphorothioate-linked, flank linkages not clearly stated, further chemistry not fully specified)
expression of PRF1 protein (PRF1 protein): reduced | expression of HIF1α at the protein level (HIF1α): significantly reduced

Akt2 GeneBloc: Akt specific antisense molecule (GeneBloc), SEQ ID NO: 38 (antisense UCCUUGTACCCAATGAAGGAG; sugars from the 5' end m6 d9 m6, backbone and methylation of C not given here; DNA gap phosphorothioate-linked, flank linkages not clearly stated, further chemistry not fully specified)
PRF1 protein level (PRF1 protein; PC-3 cells, 72 h after treatment with Akt specific antisense molecules (FIG. 10A)): reduction

HIF1α-GB67: GeneBloc antisense molecule specific for HIF1α, SEQ ID NO: 34 (antisense UGACUCCTTTTCCTGCUCUGU; sugars from the 5' end m6 d9 m6, backbone and methylation of C not given here; DNA gap phosphorothioate-linked, flank linkages not clearly stated, further chemistry not fully specified)
expression of PRF1 protein (PRF1 protein): reduced | expression of HIF1α at the protein level (HIF1α): significantly reduced

GeneBloc 70044: third generation antisense oligonucleotide directed to PRF1 mRNA, SEQ ID NO. 8 (antisense GCUCCUGCCTCTAGTCUCCAC; sugars from the 5' end m6 d9 m6, backbone and methylation of C not given here; DNA gap phosphorothioate-linked, flank linkages not clearly stated, further chemistry not fully specified)
growth on matrigel (PC-3 cells [1]): Specific growth inhibition | knockdown of the mRNA of PRF1 [2]: significant knockdown | expressed PRF1 protein (PRF1 protein): significant decrease

GeneBloc 70168: mismatched oligonucleotide (4 mismatches) corresponding to 70043, alias FLJ: 954L21, SEQ ID NO. 12 (CCGAAAAGAACAGTGCUCUCU; sugars from the 5' end m6 d9 m6, backbone and methylation of C not given here; DNA gap phosphorothioate-linked, flank linkages not clearly stated, further chemistry not fully specified)
expressed PRF1 protein (PRF1 protein): significantly expressed

GeneBloc 70043: third generation antisense oligonucleotide directed to PRF1 mRNA, SEQ ID NO. 7 (antisense CCCAAAAGTTCAGTCGUCUCU; sugars from the 5' end m6 d9 m6, backbone and methylation of C not given here; DNA gap phosphorothioate-linked, flank linkages not clearly stated, further chemistry not fully specified)
growth on matrigel (PC-3 cells [1]): Specific growth inhibition | PI 3-kinase expression (p110α and p85 specific antibodies) [3]: still being extensively expressed | knockdown of the mRNA of PRF1 [2]: significant knockdown | expressed PRF1 protein (PRF1 protein): clear reduction

B1: PRF1 specific siRNA: siRNA generated by U6+2 promoter driven expression from plasmid, directed to the mRNA of PRF1; expression cassette SEQ ID NO. 17 (nucleic acid)
DNA: GAATTCCTATTTCCCATGATTCCTTCATATTTGCATATTTTTAAAATGGACTATCATATGCTTACCGTAACTTGAAAGTATTTCGATTTCTTGGCTTTATATATCTTGGGAAAGGACGAAACACCGGGAGACTAGAGGCAGGAGCAAAAAAAAAAACTCCTGCCTCTAGTCTCCACTTTTTCTCGAG
notes: siRNA generated by U6+2 promoter driven expression from plasmid, directed to the mRNA of PRF1; 17
prostatic tumor growth (volume of primary prostate tumors) (PC-3 cells [4]; EGFP expression plasmid as control (FIG. 6C)): significantly inhibited | total lymph node metastasis (volume) (PC-3 cells [4]; EGFP expression plasmid as control (FIG. 6D)): less prominent
